Measurements published in US8906826B2, “Herbicidal compositions comprising 4-amino-3-chloro-5-fluoro-6-(4-chloro-2-fluoro-3-methoxyphenyl) pyridine-2-carboxylic acid or a derivative thereof and imidazolinones” (Dow AgroSciences, LLC, priority 2012, dated 2014).

Assays:
SINAR = assay: Postemergence herbicidal activity in cereal crops, greenhouse (Example V); assay type: in vivo, Sinapis arvensis L.
Method: (§1) Seeds of the desired test plant species were planted in Sun Gro MetroMix® 306 planting mixture, which typically has a pH of 6.0 to 6.8 and an organic matter content of about 30 percent, in plastic pots with a surface area of 103.2 square centimeters (cm^2). When required to ensure good germination and healthy plants, a fungicide treatment and/or other chemical or physical treatment was applied. The plants were grown for 7-36 days in a greenhouse with an approximate 14 hour photoperiod which was maintained at about 18° C. during the day and about 17° C. during the night. Nutrients and water were added on a regular basis and supplemental lighting was provided with overhead metal halide 1000-Watt lamps as necessary. The plants were employed for testing when they reached the second or third true leaf stage.
(§2) Treatments consisted of the benzyl ester of 4-amino-3-chloro-5-fluoro-6-(4-chloro-2-fluoro-3-methoxy-phenyl)pyridine-2-carboxylic acid (Compound A), formulated as an SC, a second cereal herbicide alone and then both in combination.
(§3) Other herbicidal components were applied on an acid equivalent basis and include acetolactate synthase (ALS)-inhibiting herbicides (imidazolinone chemical class) imazamethabenz-methyl formulated as Assert®. Spray solutions of the second cereal herbicide and experimental compound mixtures were prepared by adding the stock solutions to the appropriate amount of dilution solution to form 12 mL spray solution with active ingredients in two- and three-way combinations. […]
(§4) The treated plants and control plants were placed in a greenhouse as described above and watered by sub-irrigation to prevent wash-off of the test compounds. After 20-22 days, the condition of the test plants as compared with that of the control plants was determined visually and scored on a scale of 0 to 100 percent where 0 corresponds to no injury and 100 corresponds to complete kill. […]

CHEAL = assay: as above; assay type: in vivo, Chenopodium album L.
Method: as §1, §2, §3, §4

SASKR = assay: as above; assay type: in vivo, Salsola iberica L.
Method: as §1, §2, §3, §4

CIRAR = assay: as above; assay type: in vivo, Cirsium arvense (L.) Scop.
Method: as §1, §2, §3, §4

PAPRH = assay: as above; assay type: in vivo, Papaver rhoeas L.
Method: as §1, §2, §3, §4

VERPE = assay: as above; assay type: in vivo, Veronica persica Poir.
Method: as §1, §2, §3, §4

CYPRO = assay: In-water applied, transplanted paddy rice weeds (Example II); assay type: in vivo, Cyperus rotundus L.
Method: Weed seeds or nutlets of the desired test plant species were planted in puddled soil (mud) prepared by mixing a shredded, non-sterilized mineral soil (50.5 percent silt, 25.5 percent clay, and 24 percent sand, with a pH of about 7.6 and an organic matter content of about 2.9 percent) and water at a 1:1 volumetric ratio. The prepared mud was dispensed in 365 mL aliquots into 16-ounce (oz.) non-perforated plastic pots with a surface area of 86.59 square centimeters (cm^2) leaving a headspace of 3 centimeters (cm) in each pot. Mud was allowed to dry overnight prior to planting or transplanting. Rice seeds were planted in Sun Gro MetroMix® 306 planting mixture, which typically has a pH of about 6.0 to about 6.8 and an organic matter content of about 30 percent, in plastic plug trays. Seedlings at the second or third leaf stage of growth were transplanted into 860 mL of mud contained in 32-oz. non-perforated plastic pots with a surface area of 86.59 cm^2 4 days prior to herbicide application. The paddy was created by filling the headspace of the pots with 2.5 to 3 cm of water. When required to ensure good germination and healthy plants, a fungicide treatment and/or other chemical or physical treatment was applied. The plants were grown for 4-22 days in a greenhouse with an approximate 14 h photoperiod which was maintained at about 29° C. during the day and about 26° C. during the night. Nutrients were added as Osmocote® (19:6:12, N:P:K+minor nutrients) at 2 g per 16-oz. pot and 4 g per 32-oz. pot. […]
Treatment requirements for each compound or herbicidal component were calculated based upon the rates being tested, the concentration of active ingredient or acid equivalent in the formulation, an application volume of 2 mL per component per pot, and an application area of 86.59 cm^2 per pot.
For formulated compounds, a measured amount was placed in an individual 100 or 200 mL glass vial and was dissolved in a volume of 1.25% (v/v) Agri-Dex® crop oil concentrate to obtain application solutions. […]

[1] = Compound A Benzyl Ester 2 gae/ha
[2] = Compound A Benzyl Ester 4 gae/ha

Compound | Visual Weed Control (%) - 21 DAA SINAR Obs (SINAR; [1]) [%] | Visual Weed Control (%) - 21 DAA SINAR Obs (SINAR; [2]) [%] | Visual Weed Control (%) - 21 DAA CHEAL Obs (CHEAL; [1]) [%] | Visual Weed Control (%) - 21 DAA CHEAL Obs (CHEAL; [2]) [%] | Visual Weed Control (%) - 21 DAA SASKR Obs (SASKR; [1]) [%] | Visual Weed Control (%) - 21 DAA SASKR Obs (SASKR; [2]) [%] | Visual Weed Control (%) - 21 DAA CIRAR Obs (CIRAR; [1]) [%] | Visual Weed Control (%) - 21 DAA CIRAR Obs (CIRAR; [2]) [%] | Visual Weed Control (%) - 21 DAA PAPRH Obs (PAPRH; [1]) [%] | Visual Weed Control (%) - 21 DAA PAPRH Obs (PAPRH; [2]) [%] | Visual Weed Control (%) - 21 DAA VERPE Obs (VERPE; [1]) [%] | Visual Weed Control (%) - 21 DAA VERPE Obs (VERPE; [2]) [%] | Visual Weed Control (%) - 22 DAA CYPRO Obs (CYPRO; Compound A Acid 10.6 gae/ha) [%] | Visual Weed Control (%) - 22 DAA CYPRO Obs (CYPRO; Compound A Acid 21.2 gae/ha) [%]
COc1c(Cl)ccc(-c2nc(C(=O)OCc3ccccc3)c(Cl)c(N)c2F)c1F [Compound A Benzyl Ester, benzyl ester of 4-amino-3-chloro-5-fluoro-6-(4-chloro-2-fluoro-3-methoxy-phenyl)pyridine-2-carboxylic acid] | 60 | 70 | 50 | 60 | 10 | 60 | 10 | 20 | 20 | 70 | 0 | 5 | – | –
COc1c(Cl)ccc(-c2nc(C(=O)O)c(Cl)c(N)c2F)c1F [Compound A Acid, 4-amino-3-chloro-6-(4-chloro-2-fluoro-3-methoxyphenyl)-5-fluoropyridine-2-carboxylic acid] | – | – | – | – | – | – | – | – | – | – | – | – | 0 | 40
